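96-well plates; 48 h exposure; 5 concentrations. Endpoints by linear interpolation between flanking doses. Not reached: highest tested concentration assigned. TGI: total growth inhibition.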
Tests used:
Test in all cases: inhibition of tumour cell growth, NCI panel, 48 h
[1] = system: DU-145 prostate
[2] = system: NCI-H226 lung
[3] = system: LOX IMVI melanoma
[4] = system: RXF 393 renal
[5] = system: 786-0 renal
[6] = system: KM12 colon
[7] = system: T-47D breast
[8] = system: M14 melanoma
[9] = system: OVCAR-3 ovarian
[10] = system: HT29 colon
[11] = system: SK-OV-3 ovarian
[12] = system: MALME-3M melanoma
[13] = system: UACC-257 melanoma
[14] = system: SK-MEL-28 melanoma
[15] = system: OVCAR-5 ovarian
[16] = system: MDA-MB-435
[17] = system: TK-10 renal
[18] = system: HOP-92 NSCLC
[19] = system: SW-620 colon
[20] = system: OVCAR-4 ovarian
[21] = system: OVCAR-8 ovarian
[22] = system: EKVX NSCLC
[23] = system: SK-MEL-2 melanoma
[24] = system: HCC-2998 colon
[25] = system: BT-549 breast
[26] = system: HL-60(TB) leukemia
[27] = system: SR leukemia
[28] = system: CCRF-CEM leukemia
[29] = system: SNB-75 CNS
[30] = system: SF-295 CNS
[31] = system: HOP-62 NSCLC
[32] = system: MCF7 breast
[33] = system: SK-MEL-5 melanoma
[34] = system: SF-268 CNS
[35] = system: HCT-116 colon
[36] = system: SNB-19 CNS
[37] = system: UO-31 renal
[38] = system: COLO 205 colon
[39] = system: A498 renal
[40] = system: K-562 leukemia
[41] = system: SN12C renal
[42] = system: PC-3 prostate
[43] = system: CAKI-1 renal
[44] = system: UACC-62 melanoma
[45] = system: HS 578T breast
[46] = system: NCI/ADR-RES ovarian
[47] = system: NCI-H460 lung
[48] = system: U251 CNS
[49] = system: MDA-MB-231 breast
[50] = system: A549 NSCLC
[51] = system: NCI-H23 lung
[52] = system: MOLT-4 leukemia
[53] = system: NCI-H522 lung
[54] = system: HCT-15 colon
[55] = system: RPMI-8226 leukemia
[56] = system: IGROV1 ovarian
[57] = system: SF-539 CNS
[58] = system: ACHN renal

COc1ccc(OC)c2c3c([nH]c12)C(=O)Nc1nc(N)nc(N)c1C3
TGI [1]: > 100 µM | TGI [2]: > 100 µM | TGI [3]: > 100 µM | TGI [4]: > 100 µM | TGI [5]: > 100 µM | TGI [6]: > 100 µM | TGI [7]: > 100 µM | TGI [8]: > 100 µM | TGI [9]: > 100 µM | TGI [10]: 4.49 µM | TGI [11]: > 100 µM | TGI [12]: > 100 µM | TGI [13]: > 100 µM | TGI [14]: > 100 µM | TGI [15]: > 100 µM | TGI [16]: > 100 µM | TGI [17]: > 100 µM | TGI [18]: > 100 µM | TGI [19]: > 100 µM | TGI [20]: > 100 µM | TGI [21]: > 100 µM | TGI [22]: > 100 µM | TGI [23]: > 100 µM | TGI [24]: > 100 µM | TGI [25]: > 100 µM

CC(C)CCCC(C)[C@H]1CC[C@H]2N=C(NCc3ccccc3)CCC[C@]12C (some centres undefined)
TGI [26]: 7.63 µM | TGI [27]: 7.84 µM | TGI [4]: 3.14 µM | TGI [28]: 5.42 µM | TGI [29]: 3.52 µM | TGI [30]: 3.62 µM | TGI [31]: 8.56 µM | TGI [32]: 3.29 µM | TGI [33]: 3.06 µM | TGI [34]: 8.92 µM | TGI [35]: > 100 µM | TGI [7]: 8.01 µM | TGI [36]: 8.75 µM | TGI [37]: 8.29 µM | TGI [38]: 2.77 µM | TGI [9]: 5.33 µM | TGI [10]: 3.17 µM | TGI [11]: 20.1 µM | TGI [39]: 4.77 µM | TGI [40]: 3.23 µM | TGI [41]: 3.62 µM | TGI [42]: 4.93 µM | TGI [13]: 5.24 µM | TGI [43]: 5.65 µM | TGI [14]: 2.96 µM | TGI [44]: 3.48 µM | TGI [45]: 9.48 µM | TGI [46]: 3.15 µM | TGI [47]: 3.34 µM | TGI [17]: 5.45 µM | TGI [18]: 5.67 µM | TGI [19]: 4.45 µM | TGI [20]: 8.75 µM | TGI [25]: 8.19 µM

CC(O)[C@@]1(c2ccccc2)CC2(CCN(C)CC2)O[C@H]1C (some centres undefined)
TGI [48]: > 100 µM | TGI [26]: 95 µM | TGI [1]: > 100 µM | TGI [27]: > 100 µM | TGI [49]: > 100 µM | TGI [2]: > 100 µM | TGI [3]: > 100 µM | TGI [4]: > 100 µM | TGI [50]: > 100 µM | TGI [28]: 79 µM | TGI [29]: > 100 µM | TGI [30]: > 100 µM | TGI [31]: > 100 µM | TGI [32]: > 100 µM | TGI [33]: > 100 µM | TGI [34]: > 100 µM | TGI [5]: > 100 µM | TGI [6]: > 100 µM | TGI [7]: 98 µM | TGI [36]: > 100 µM | TGI [51]: > 100 µM | TGI [8]: > 100 µM | TGI [37]: > 100 µM | TGI [38]: > 100 µM | TGI [9]: > 100 µM | TGI [10]: > 100 µM | TGI [11]: > 100 µM | TGI [39]: > 100 µM | TGI [12]: > 100 µM | TGI [40]: > 100 µM | TGI [42]: > 100 µM | TGI [13]: > 100 µM | TGI [52]: > 100 µM | TGI [43]: > 100 µM | TGI [14]: > 100 µM | TGI [44]: > 100 µM | TGI [45]: > 100 µM | TGI [53]: > 100 µM | TGI [15]: > 100 µM | TGI [54]: > 100 µM | TGI [46]: > 100 µM | TGI [55]: > 100 µM | TGI [16]: > 100 µM | TGI [47]: > 100 µM | TGI [17]: > 100 µM | TGI [18]: > 100 µM | TGI [56]: > 100 µM | TGI [19]: > 100 µM | TGI [57]: > 100 µM | TGI [20]: > 100 µM | TGI [21]: > 100 µM | TGI [22]: > 100 µM | TGI [23]: > 100 µM | TGI [58]: > 100 µM | TGI [24]: > 100 µM
